# Columns and labels:
# [1] = system: human prostate cancer-derived cell line DU145; experiment: Colony formation test after gamma ray irradiation with or without recombinant SPINK1 protein; type: cell-based; conditions: rSPINK1 100 ng/ml for 24 hours, 0, 2, 4 or 6 Gy gamma rays, cultured 14 days, FIG. 41
# Protocol: Human prostate cancer-derived cell line DU145 was cultured in serum-free medium under normal oxygen (20%) conditions for 24 hours. The medium was then replaced with normal medium (containing 5% serum) containing a recombinant SPINK1 protein at a final concentration of 100 ng/ml or with normal medium not containing the recombinant SPINK1 protein. The cells were cultured under normal oxygen conditions for 24 hours. The cells were then irradiated with 0, 2, 4, or 6 Gy gamma rays and cultured for 14 days. A colony formation test was then performed.
# [2] = system: human prostate cancer-derived cell line DU145; experiment: Viable cell quantification (Cell Count Reagent SF) after gamma ray irradiation with or without recombinant SPINK1 and anti-SPINK1 antibody; type: cell-based; conditions: recombinant SPINK1 purified protein for 24 hours, 0 or 4 Gy gamma rays, 3 further days, FIG. 43
# Protocol: Human prostate cancer-derived cell line DU145 was seeded into 96-well cell culture plates (4×10^2 cells per well in a 96-well plate when the dose of the subsequent irradiation is 0 Gy; and 1.2×10^3 cells per well when the dose is 4 Gy) and cultured in a CO2 incubator under a normal oxygen concentration overnight. Thereafter, the cells were cultured in serum-free medium for another 24 hours and then cultured in the presence or absence of recombinant SPINK1 purified protein and in the presence or absence of anti-SPINK1 antibody under normal oxygen conditions for 24 hours. The cells were then irradiated with 0 Gy or 4 Gy gamma rays and cultured under normal oxygen conditions for an additional 3 days. Viable cells were then quantified with Cell Count Reagent SF (produced by Nacalai Tesque, Inc., Catalog #07553-44).
substance,measurement,setting,value
"recombinant SPINK1 protein: recombinant SPINK1 (serine protease inhibitor Kazal type I) protein added to culture medium (DSLGREAKCYNELNGCTKIYDPVCGTDGNTYPNECVLCFENRKRQTSILIQKSGPC; UniProt P00995 24-79, looked up)",radiation resistance of the cells (colony formation),[1],radiation resistance of the cells is induced
same,radiation resistance of the cells (viable cells),[2],radiation resistance of the cells was induced

# — patent US20240295567A1, “HYPOXIA BIOMARKER AND USE THEREOF” (Kyoto University, priority 2021, published 2024)
